The IC50 is the concentration that inhibits the measured activity by half.

Test [1] addresses GST-tagged GDP-loaded KRAS G12D (amin acids 1-188) (Homo sapiens, UniProt P01116, G12D). The test is described as follows: KRAS G12D probe displacement assay (TR-FRET). The test is classed as binding. Conditions: Table 5; KRAS G12D 0.5 nM, biotinylated probe 2 4 nM. As to the method: Plates are incubated at 24° C. for 1 hr.
Test [2] has as its target GST-tagged GDP-loaded KRAS G12V (amino acids 1-169) (Homo sapiens, UniProt P01116, G12V). The experiment in a line: KRAS G12V probe displacement assay (TR-FRET). The test is classed as binding. Conditions: Table 4; KRAS G12V 2 nM, biotinylated probe 2 2.5 nM. As to the method:
Plates are incubated at 24 °C for 1 hr. […] After 1 hr incubation at 24° C.
Background: TR-FRET usually uses a lanthanide donor and a delayed reading to cut background.

The subject of test [3] is pERK1/2(THR202/TYR204) level in SW620 cell line. The test is described as follows: KRAS G12V pERK assay in SW620 cells (HTRF). It counts as cell-based. Conditions: Homo sapiens, SW-620, Table 4, 2 hrs compound treatment. As to the method:
SW620 cell line was used in this study. Cells were maintained in RPMI 1640 supplemented with 10% fetal bovine serum (Thermo Fisher), 50 units/mL penicillin and streptomycin (Thermo Fisher) and kept at 37° C. in a humidified atmosphere of 5% CO2 in air. Cells were reinstated from frozen stocks that were laid down within 30 passages from the original cells purchased. 40000 cells per well were seeded into a 96-well plate and incubated overnight. Cells were treated with a 10-point dilution series. The final compound concentration is from 0 to 10 μM. After 2 hrs compound treatment, cells were lysed, and the pERK1/2(THR202/TYR204) level in the cell lysates was detected by HTRF kit (Cisbio). In brief, a total of 16 μL of cell lysate from each well of a 96-well plate was transferred to a 384-well white assay plate. Lysate from each well was incubated with 2 μL of Eu3+-cryptate (donor) labeled anti-phospho-ERK1/2 and 2 μL of D)2 (acceptor) labeled anti-phospho-ERK1/2 antibodies (Cisbio) overnight in dark at room temperature. When donor and acceptor are in close proximity, excitation of the donor with laser triggers a Fluorescence Resonance Energy Transfer (FRET) towards the acceptor, which in turn fluoresces at 655 nm wavelength. FRET signals were measured using a PHERAstar FSX reader (BMG Labtech). IC50 determination was performed by fitting the curve of percent inhibition versus the log of the inhibitor concentration using Dotmatics.

Chain of GST-tagged GDP-loaded KRAS G12V (amino acids 1-169) (P01116 1-169 isoform P01116-2 G12V): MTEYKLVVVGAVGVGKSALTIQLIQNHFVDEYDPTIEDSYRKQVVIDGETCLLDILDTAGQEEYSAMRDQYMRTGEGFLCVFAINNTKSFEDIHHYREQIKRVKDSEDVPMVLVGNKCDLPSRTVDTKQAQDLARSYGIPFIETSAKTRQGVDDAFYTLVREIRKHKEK
Chain of GST-tagged GDP-loaded KRAS G12D (amin acids 1-188) (P01116 1-188 isoform P01116-2 G12D): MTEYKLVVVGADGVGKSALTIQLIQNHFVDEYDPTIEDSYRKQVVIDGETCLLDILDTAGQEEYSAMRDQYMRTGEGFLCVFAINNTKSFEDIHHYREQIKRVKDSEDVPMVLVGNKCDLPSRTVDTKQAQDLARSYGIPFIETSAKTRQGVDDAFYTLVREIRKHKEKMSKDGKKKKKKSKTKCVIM

In test [1], `CNCCN1CCCOc2nc(-c3cc(N)cc(Cl)c3C(F)(F)F)c(F)c3nc(OC[C@@]45CCCN4C[C@H](F)C5)nc1c23` [Example 17, 3-chloro-5-(4-fluoro-2-(((2R,7aS)-2-fluorotetrahydro-1H-pyrrolizin-7a(5H)-yl)methoxy)-11-(2-(methylamino)ethyl)-8,9,10,11-tetrahydro-7-oxa-1,3,6,11-tetraazacycloocta[de]naphthalen-5-yl)-4-(trifluoromethyl)aniline] yielded an IC50 of 9.6 nM. In test [1], `Nc1cc(Cl)c(C(F)(F)F)c(-c2nc3c4c(nc(OC[C@@]56CCCN5C[C@H](F)C6)nc4c2F)N([C@@H]2CCNC2)CCCO3)c1` [Example 41, 3-chloro-5-(4-fluoro-2-(((2R,7aS)-2-fluorotetrahydro-1H-pyrrolizin-7a(5H)-yl)methoxy)-11-((R)-pyrrolidin-3-yl)-8,9,10,11-tetrahydro-7-oxa-1,3,6,11-tetraazacycloocta[de]naphthalen-5-yl)-4-(trifluoromethyl)aniline] gave an IC50 of 34 nM. For `CN1c2nc(OC[C@@]34CCCN3C[C@H](F)C4)nc3c(F)c(-c4cc(N)cc(Cl)c4C(F)(F)F)nc(c23)OC[C@H]2CCC[C@H]21` [Example 52, 3-chloro-5-((8aS,11aR)-4-fluoro-2-(((2R,7aS)-2-fluorotetrahydro-1H-pyrrolizin-7a(5H)-yl)methoxy)-12-methyl-8a, 9,10,11,11a, 12-hexahydro-8H-7-oxa-1,3,6,12-tetraazacyclopenta[5,6]cycloocta[1,2,3-de]naphthalen-5-yl)-4-(trifluoromethyl)aniline], the IC50 in test [2] was found to be 6.5 nM; in test [3] it was 158 nM.

`Cc1cc(N)cc(-c2nc3c4c(nc(OC[C@@]56CCCN5C[C@H](F)C6)nc4c2F)N(C)C2(CCO3)CC2)c1C(F)(F)F` [Example 53, 3-(4-fluoro-2-(((2R,7aS)-2-fluorotetrahydro-1H-pyrrolizin-7a(5H)-yl)methoxy)-11-methyl-8,9-dihydro-11H-7-oxa-1,3,6,11-tetraazaspiro[cycloocta[de]naphthalene-10,1′-cyclopropan]-1(11a), 2,3a, 3 al(6a), 5-pentaen-5-yl)-5-methyl-4-(trifluoromethyl)aniline]: the results for the IC50 in test [2] and in test [3] were 0.63 nM and 26 nM, respectively.

As for `CCN1c2nc(OC[C@@]34CCCN3C[C@H](F)C4)nc3c(F)c(-c4cc(N)cc(C)c4C(F)(F)F)nc(c23)OCCC12CC2` [Example 54, 3-(11-ethyl-4-fluoro-2-(((2R,7aS)-2-fluorotetrahydro-1H-pyrrolizin-7a(5H)-yl)methoxy)-8,9-dihydro-11H-7-oxa-1,3,6,11-tetraazaspiro[cycloocta[de]naphthalene-10,1′-cyclopropan]-1(11a), 2,3a, 3a^1(6a), 5-pentaen-5-yl)-5-methyl-4-(trifluoromethyl)aniline], the IC50 in test [2] came to 1.7 nM; in test [3], 51 nM. For `CCN1c2nc(OCC34CCCN3CC(F)C4)nc3c(F)c(-c4cc(N)cc(Cl)c4C(F)(F)F)nc(c23)OCCC12CC2` [Example 55, 3-chloro-5-(11-ethyl-4-fluoro-2-(((2R,7aS)-2-fluorotetrahydro-1H-pyrrolizin-7a(5H)-yl)methoxy)-8,9-dihydro-11H-7-oxa-1,3,6,11-tetraazaspiro[cycloocta[de]naphthalene-10,1′-cyclopropan]-1(11a), 2,3a, 3 al(6a), 5-pentaen-5-yl)-4-(trifluoromethyl)aniline], in that order: 0.57 nM and 41 nM. Turning to `CCN1c2nc(OC[C@@]34CCCN3C[C@H](F)C4)nc3c(F)c(-c4cc(N)cc(C)c4C(F)(F)F)nc(c23)OCCC12COC2` [Example 56, 3-(11-ethyl-4-fluoro-2-(((2R,7aS)-2-fluorotetrahydro-1H-pyrrolizin-7a(5H)-yl)methoxy)-8,9-dihydro-11H-7-oxa-1,3,6,11-tetraazaspiro[cycloocta[de]naphthalene-10,3′-oxetan]-1(11a), 2,3a, 3a^1(6a),5-pentaen-5-yl)-5-methyl-4-(trifluoromethyl)aniline], the IC50 in test [2] is 1.2 nM; in test [3], 33 nM.

In the case of `CCN1c2nc(OC[C@@]34CCCN3C[C@H](F)C4)nc3c(F)c(-c4cc(N)cc(C)c4C(F)(F)F)nc(c23)O[C@H]2COCC[C@@H]21` [Example 57, 3-((7aR,11aS)-12-ethyl-4-fluoro-2-(((2R,7aS)-2-fluorotetrahydro-1H-pyrrolizin-7a(5H)-yl)methoxy)-7a, 8,10,11,11a, 12-hexahydro-7,9-dioxa-1,3,6,12-tetraazapleiaden-5-yl)-5-methyl-4-(trifluoromethyl)aniline], the figures for the IC50 in test [2] and in test [3] were 0.83 nM and 41 nM, respectively. As to `CCN1c2nc(OC[C@@]34CCCN3C[C@H](F)C4)nc3c(F)c(-c4cc(N)cc(Cl)c4C(F)(F)F)nc(c23)O[C@H]2COCC[C@@H]21` [Example 58, 3-chloro-5-((7aR,11aS)-12-ethyl-4-fluoro-2-(((2R,7aS)-2-fluorotetrahydro-1H-pyrrolizin-7a(5H)-yl)methoxy)-7a, 8,10,11,11a, 12-hexahydro-7,9-dioxa-1,3,6,12-tetraazaplciaden-5-yl)-4-(trifluoromethyl)aniline], the IC50 stood at 0.49 nM in test [2] and 29 nM in test [3]. Regarding `CN1c2nc(OCC3(C)CCC4COCCN4C3)nc3c(F)c(-c4cc(N)cc(Cl)c4C(F)(F)F)nc(c23)O[C@H]2COCC[C@@H]21` (stereo partly drawn) [Example 60, 3-chloro-5-((7aR,11aS)-4-fluoro-12-methyl-2-((7-methyloctahydropyrido[2,1-c][1,4]oxazin-7-yl)methoxy)-7a, 8,10,11,11a, 12-hexahydro-7,9-dioxa-1,3,6,12-tetraazapleiaden-5-yl)-4-(trifluoromethyl)aniline], the IC50 in test [2] amounted to 0.63 nM; in test [3], 20 nM.

In the case of `CN1CCOC(C)(COc2nc3c4c(nc(-c5cc(N)cc(Cl)c5C(F)(F)F)c(F)c4n2)O[C@H]2COCC[C@@H]2N3C)C1` (stereo partly drawn) [Example 63, 3-chloro-5-((7aR,11aS)-2-((2,4-dimethylmorpholin-2-yl)methoxy)-4-fluoro-12-methyl-7a, 8,10,11,11a, 12-hexahydro-7,9-dioxa-1,3,6,12-tetraazapleiaden-5-yl)-4-(trifluoromethyl)aniline], the IC50 in test [2] worked out at 1.1 nM; in test [3] it was 25 nM. On to `CN1c2nc(OC[C@@]34CCCN3C[C@H](F)C4)nc3c(F)c(-c4cc(N)c(F)c(Cl)c4C(F)(F)F)nc(c23)O[C@H]2COCC[C@@H]21` [Example 66, 3-chloro-2-fluoro-5-((7aR,11aS)-4-fluoro-2-(((2R,7aS)-2-fluorotetrahydro-1H-pyrrolizin-7a(5H)-yl)methoxy)-12-methyl-7a, 8,10,11,11a, 12-hexahydro-7,9-dioxa-1,3,6,12-tetraazapleiaden-5-yl)-4-(trifluoromethyl)aniline], for which the IC50 amounted to 0.47 nM in test [2] and 5.8 nM in test [3].

For `Cc1c(F)c(N)cc(-c2nc3c4c(nc(OC[C@@]56CCCN5C[C@H](F)C6)nc4c2F)N(C)[C@H]2CCOC[C@@H]2O3)c1C(F)(F)F` [Example 67, 2-fluoro-5-((7aR,11aS)-4-fluoro-2-(((2R,7aS)-2-fluorotetrahydro-1H-pyrrolizin-7a(5H)-yl)methoxy)-12-methyl-7a, 8,10,11,11a, 12-hexahydro-7,9-dioxa-1,3,6,12-tetraazapleiaden-5-yl)-3-methyl-4-(trifluoromethyl)aniline], the results for the half-maximal inhibitory concentration (IC50) in test [2] and in test [3] were 0.65 nM and 12 nM, respectively.

For the origin of these results see patent US20240262848A1, “HETEROCYCLIC COMPOUNDS, COMPOSITIONS THEREOF, AND METHODS OF TREATMENT THEREWITH” (BeiGene, Ltd., priority 2022, published 2024).
